Measured values: PMC3136114 (2011)

Tested on: c-Myc duplex (18 bp, d(AGGGTGGGG)2:d(CCCCACCCT)2) (DNA, duplex) AGGGTGGGGAGGGTGGGG/CCCCACCCTCCCCACCCT
Assay: UV absorption titration, Scatchard
Conditions: 137 mM Na+ (NaCl), 5.4 mM K+ (KCl), 1.3 mM Ca2+, 1 mM Mg2+; Hanks' buffer, pH 7.2, 20 °C; single type of site; per site

In the case of `O=C1NC(=O)c2c1c1c3ccccc3[nH]c1c1c2c2ccccc2n1[C@@H]1OC[C@H](O)[C@H](O)[C@H]1O`, the K1 was 0.8 ± 0.1 × 10^6 M^-1.
